Results from US6313171A, “Method for preventing or treating elevated blood lipid level-related diseases by administering cinnamic acid derivatives” (Korea Research Institute of Bioscience & Biotechnology, priority 1998, dated 2001).

These molecules were tested against T1, HMG-CoA reductase (Rattus norvegicus, UniProt P51639) (assay: HMG-CoA reductase activity assay, liver microsomes of the fed rats). Details: liver microsomes of rats fed 0.1% in 1% cholesterol diet; Control 0.
T1 construct: the supernatant was ultracentrifuged at 100,000×g for 60 minutes to obtain microsomal precipitates; from tissue; host or cells: rat liver microsomes
T1 sequence (P51639 1-887): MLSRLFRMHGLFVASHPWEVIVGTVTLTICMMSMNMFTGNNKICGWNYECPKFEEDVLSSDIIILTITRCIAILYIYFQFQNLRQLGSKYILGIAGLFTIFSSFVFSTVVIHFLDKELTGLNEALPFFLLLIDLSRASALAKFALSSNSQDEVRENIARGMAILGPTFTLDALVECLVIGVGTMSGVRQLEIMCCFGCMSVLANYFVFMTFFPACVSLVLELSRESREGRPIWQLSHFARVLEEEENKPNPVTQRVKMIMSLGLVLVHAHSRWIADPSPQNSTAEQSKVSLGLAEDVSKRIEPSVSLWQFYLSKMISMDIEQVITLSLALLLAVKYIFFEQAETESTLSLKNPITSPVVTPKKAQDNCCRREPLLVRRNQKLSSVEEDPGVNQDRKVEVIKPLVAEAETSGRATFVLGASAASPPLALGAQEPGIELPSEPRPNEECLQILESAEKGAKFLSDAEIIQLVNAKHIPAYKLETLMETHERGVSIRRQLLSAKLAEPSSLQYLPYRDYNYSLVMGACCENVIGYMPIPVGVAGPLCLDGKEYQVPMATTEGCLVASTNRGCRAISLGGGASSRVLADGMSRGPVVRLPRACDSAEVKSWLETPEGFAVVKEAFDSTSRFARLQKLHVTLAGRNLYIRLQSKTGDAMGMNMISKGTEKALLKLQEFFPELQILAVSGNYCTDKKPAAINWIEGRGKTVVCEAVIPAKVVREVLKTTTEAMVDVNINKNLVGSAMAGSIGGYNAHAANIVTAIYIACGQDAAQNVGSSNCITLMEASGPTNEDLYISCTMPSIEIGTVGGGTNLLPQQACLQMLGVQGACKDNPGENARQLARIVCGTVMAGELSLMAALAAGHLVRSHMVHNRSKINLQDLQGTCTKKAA
Assay type: biochemical
Description: In order to determine the activity of HMG-CoA reductase, Hulcher's method was employed after some modification (see J. Lipid Res., 14, 625-641(1973)). In this method, the concentration of the coenzyme-A (CoA-SH), which is produced when HMG-CoA is reduced to a mevalonate salt by the action of HMG-CoA reductase, is determined by spectroscopy and the activity of HMG-CoA reductase is calculated therefrom.
3 g of liver tissue taken from each group of rats of Example 2 was washed successively with 100 ml of a cold saline (0.15 M NaCl) and 100 ml of a cold buffer solution A (0.1 M triethanolamine, HCl/0.2 M EDTA/2 mM dithiothreitol (DTT)). The cold buffer solution A was added to the liver tissue in an amount of 2 ml per 1 g of the liver tissue and the mixture was homogenized with a homogenizer. The homogenate was centrifuged at 15,000×g for 15 minutes, and then, the supernatant was ultracentrifuged at 100,000×g for 60 minutes to obtain microsomal precipitates. The precipitates thus obtained was washed with a cold buffer solution A and kept in a 1.5 ml tube at -70° C.
The reaction substrates used in HMG-CoA reductase activity assay were as follows: i) buffer solution B: 0.1 M triethanolamine, HCl/0.02 M EDTA (pH 7.4), ii) HMG-CoA solution: 150 μmoles/culture medium, and iii) NADPH solution: 2 μmoles/culture medium.
The suspension (microsome) was mixed with the reaction substrate and the mixture was placed in a centrifugation tube and reacted at 37° C. for 30 minutes. […]
Then, the reactant was mixed with 20 μl of DTNB buffer solution (3 mM DTNB/0.1 M triethanolamine/0.2 M EDTA, pH 7.4) and the absorbance of the mixture was determined at 412 nm to calculate the amount of CoA-SH (activity of HMG-CoA reductase).
The extent of inhibition of HMG-CoA reductase activity by cinnamic acid derivatives was calculated based on the above result.

Going from O=C(O)/C=C/c1ccc(O)cc1 [4-Hydroxycinnamic acid, 4-hydroxycinnamic acid] to O=C(O)/C=C/c1ccc(O)c(O)c1 [3,4-dihydroxycinnamic acid], the “Inhibition of HMG-CoA reductase activity” value rises from 31% to 44%.

For O=C(O)CCc1ccc(O)c(O)c1 [3,4-dihydroxyhydrocinnamic acid], the “Inhibition of HMG-CoA reductase activity” value was 70%.
